# PMC4826192 (Oncotarget, 2015)
# Assays:
# [1] = molecular target: FGFR3 (Homo sapiens, UniProt P22607); assay: In vitro kinase inhibition profile (biochemical); conditions: read-out: Biochemical (IC50 nmol/L)
# [2] = tested on: p-AKT (Ser473); assay: Western immunoblotting of downstream effector in sarcoma cells; format: cell-based; conditions: western blot
# Procedure: […]. Cell viability was measured using Dojindo Cell Counting Kit 8. Dose response graphs were generated as a percentage of the no drug control. Error bars represent standard error mean. Combined data from three independent experiments is shown. B. Indicated cell lines were grown to 60% confluency in serum free media overnight. […] After the drug treatments, cells were stimulated in drug free media containing 10%FBS. Media containing no FBS was used as unstimulated control. […] Representative western blots from two independent experiments are shown. ND=No Drug, Uns=Unstimulated control.
# . Cell viability was measured using Dojindo Cell Counting Kit 8. Graphs were generated as a percentage of the no drug (ND) control. Error bars represent standard error mean. Combined data from at least two independent experiments is shown. Note: For Figure 4A, error bars are included; however, they are too small to be seen. C. Indicated cell lines were grown to 60% confluency in serum free media overnight. […] After the drug treatments, cells were stimulated in drug free media containing 10%FBS. […] Representative western blots from two independent experiments are shown. D. 1,000 cells were plated, in triplicate, onto 100mm dishes and treated the next day with the indicated drugs in media containing 10%FBS for 24 hours. […] Colonies were scored with ColCount software from Oxford Optronix (Abingdon, UK). […]
# [3] = molecular target: FES (Homo sapiens, UniProt P07332); assay: In vitro kinase inhibition profile (biochemical); conditions: read-out: Biochemical (IC50 nmol/L)
# [4] = molecular target: ABL (Homo sapiens, UniProt P00519); assay: In vitro kinase inhibition profile (biochemical); conditions: read-out: Biochemical (IC50 nmol/L)
# [5] = molecular target: ALK (Homo sapiens, UniProt Q9UM73); assay: In vitro kinase inhibition profile (biochemical); conditions: read-out: Biochemical (IC50 nmol/L)
# [6] = molecular target: HCK (Homo sapiens, UniProt P08631); assay: In vitro kinase inhibition profile (biochemical); conditions: read-out: Biochemical (IC50 nmol/L)
# [7] = molecular target: JAK3 (Homo sapiens, UniProt P52333); assay: In vitro kinase inhibition profile (biochemical); conditions: read-out: Biochemical (IC50 nmol/L)
# Chain of JAK3 (P52333 whole entry): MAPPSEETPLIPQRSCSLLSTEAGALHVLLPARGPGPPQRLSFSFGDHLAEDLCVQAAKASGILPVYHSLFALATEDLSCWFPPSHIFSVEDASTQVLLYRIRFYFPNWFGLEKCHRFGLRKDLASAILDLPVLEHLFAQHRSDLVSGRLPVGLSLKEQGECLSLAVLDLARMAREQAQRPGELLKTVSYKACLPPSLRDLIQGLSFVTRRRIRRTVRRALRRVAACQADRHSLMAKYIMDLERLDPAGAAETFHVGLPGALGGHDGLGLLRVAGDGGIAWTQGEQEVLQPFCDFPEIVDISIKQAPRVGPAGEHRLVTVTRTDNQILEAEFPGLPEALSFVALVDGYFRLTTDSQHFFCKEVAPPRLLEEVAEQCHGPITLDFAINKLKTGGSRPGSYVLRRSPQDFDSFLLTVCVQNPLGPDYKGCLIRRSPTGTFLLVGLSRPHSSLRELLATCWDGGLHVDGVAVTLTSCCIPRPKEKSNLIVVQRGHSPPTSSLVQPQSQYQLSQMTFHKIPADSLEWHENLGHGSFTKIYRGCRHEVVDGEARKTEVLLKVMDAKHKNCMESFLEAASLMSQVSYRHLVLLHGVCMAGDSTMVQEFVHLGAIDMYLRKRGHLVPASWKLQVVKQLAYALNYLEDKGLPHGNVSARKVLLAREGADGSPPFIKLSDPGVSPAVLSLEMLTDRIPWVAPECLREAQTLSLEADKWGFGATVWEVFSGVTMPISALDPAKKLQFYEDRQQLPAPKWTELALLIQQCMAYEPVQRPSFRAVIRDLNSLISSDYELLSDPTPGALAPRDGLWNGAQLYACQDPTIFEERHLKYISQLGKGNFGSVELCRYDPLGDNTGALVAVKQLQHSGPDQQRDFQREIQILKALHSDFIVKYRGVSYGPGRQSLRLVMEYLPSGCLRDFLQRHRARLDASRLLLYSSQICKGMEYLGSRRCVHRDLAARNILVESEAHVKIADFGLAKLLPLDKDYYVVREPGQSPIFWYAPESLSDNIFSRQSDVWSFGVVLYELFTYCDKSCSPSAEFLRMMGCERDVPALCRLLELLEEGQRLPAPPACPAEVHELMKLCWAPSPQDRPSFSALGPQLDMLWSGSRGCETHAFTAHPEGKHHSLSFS
# [8] = tested on: MPNST xenografts; assay: MPNST mouse xenograft tumor growth; format: in vivo, ICR/SCID mice; conditions: MGCD516 15 mg/kg p.o., crizotinib 50 mg/kg i.p., imatinib 30 mg/kg i.p., QD 5 days a week
# Procedure: […]. […] […]. Tumor size was measured twice weekly by caliper.
# [9] = molecular target: ERBB2 (Homo sapiens, UniProt P04626); assay: In vitro kinase inhibition profile (biochemical); conditions: read-out: Biochemical (IC50 nmol/L)
# [10] = molecular target: ARG (Homo sapiens, UniProt P42684); assay: In vitro kinase inhibition profile (biochemical); conditions: read-out: Biochemical (IC50 nmol/L)
# [11] = molecular target: ZAP70 (Homo sapiens, UniProt P43403); assay: In vitro kinase inhibition profile (biochemical); conditions: read-out: Biochemical (IC50 nmol/L)
# [12] = molecular target: JAK2 (Homo sapiens, UniProt O60674); assay: In vitro kinase inhibition profile (biochemical); conditions: read-out: Biochemical (IC50 nmol/L)
# [13] = tested on: MPNST cell line; assay: Colony formation assay; format: cell-based; conditions: 500 nmol/L, 24 hours treatment, 10 to 14 days drug-free
# Procedure: . Cell viability was measured using Dojindo Cell Counting Kit 8. Graphs were generated as a percentage of the no drug (ND) control. Error bars represent standard error mean. Combined data from at least two independent experiments is shown. Note: For Figure 4A, error bars are included; however, they are too small to be seen. C. Indicated cell lines were grown to 60% confluency in serum free media overnight. […] After the drug treatments, cells were stimulated in drug free media containing 10%FBS. […] Representative western blots from two independent experiments are shown. D. 1,000 cells were plated, in triplicate, onto 100mm dishes and treated the next day with the indicated drugs in media containing 10%FBS for 24 hours. Following treatment, cells were cultured in drug-free media for 10 to 14 days. Colonies were scored with ColCount software from Oxford Optronix (Abingdon, UK). Combined data from the experiment carried out in triplicate is shown.
# 1,000 cells were plated, in triplicate, onto 100 mm dishes and allowed to adhere overnight. Cells were treated for 24 hours with the indicated drugs. Following treatment, cells were cultured in drug-free media for 10 to 14 days. The resulting colonies were fixed in 20% ethanol and stained with 2.5% crystal violet. Colonies were scored with ColCount software from Oxford Optronix (Abingdon, UK).
# [14] = molecular target: FGFR2 (Homo sapiens, UniProt P21802); assay: In vitro kinase inhibition profile (biochemical); conditions: read-out: Biochemical (IC50 nmol/L)
# Chain of FGFR2 (P21802 22-821): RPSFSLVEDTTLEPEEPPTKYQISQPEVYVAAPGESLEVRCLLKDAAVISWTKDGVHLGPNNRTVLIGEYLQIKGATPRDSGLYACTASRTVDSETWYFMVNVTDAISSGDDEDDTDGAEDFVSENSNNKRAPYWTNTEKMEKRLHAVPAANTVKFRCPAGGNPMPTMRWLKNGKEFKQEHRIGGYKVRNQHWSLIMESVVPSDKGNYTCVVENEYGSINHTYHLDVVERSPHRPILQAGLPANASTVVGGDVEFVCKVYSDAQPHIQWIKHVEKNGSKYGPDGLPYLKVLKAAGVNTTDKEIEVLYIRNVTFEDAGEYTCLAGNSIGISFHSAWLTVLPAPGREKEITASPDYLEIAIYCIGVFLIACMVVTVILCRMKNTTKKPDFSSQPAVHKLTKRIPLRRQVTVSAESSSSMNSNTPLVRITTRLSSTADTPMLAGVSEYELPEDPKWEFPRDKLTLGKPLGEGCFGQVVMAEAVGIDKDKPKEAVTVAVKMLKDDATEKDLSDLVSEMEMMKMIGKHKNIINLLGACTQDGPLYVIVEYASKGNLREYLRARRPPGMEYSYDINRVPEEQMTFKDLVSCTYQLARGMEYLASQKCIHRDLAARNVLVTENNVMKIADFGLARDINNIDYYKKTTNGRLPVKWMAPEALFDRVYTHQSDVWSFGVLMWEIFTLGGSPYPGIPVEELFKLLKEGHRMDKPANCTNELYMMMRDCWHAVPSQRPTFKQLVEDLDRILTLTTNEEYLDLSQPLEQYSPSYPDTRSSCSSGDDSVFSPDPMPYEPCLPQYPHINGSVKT
# [15] = molecular target: FYN (Homo sapiens, UniProt P06241); assay: In vitro kinase inhibition profile (biochemical); conditions: read-out: Biochemical (IC50 nmol/L)
# [16] = molecular target: FGFR4 (Homo sapiens, UniProt P22455); assay: In vitro kinase inhibition profile (biochemical); conditions: read-out: Biochemical (IC50 nmol/L)
# [17] = molecular target: PDGFRα (Homo sapiens, UniProt P16234); assay: In vitro kinase inhibition profile (biochemical); conditions: read-out: Biochemical (IC50 nmol/L)
# Chain of PDGFRα (P16234 24-1089): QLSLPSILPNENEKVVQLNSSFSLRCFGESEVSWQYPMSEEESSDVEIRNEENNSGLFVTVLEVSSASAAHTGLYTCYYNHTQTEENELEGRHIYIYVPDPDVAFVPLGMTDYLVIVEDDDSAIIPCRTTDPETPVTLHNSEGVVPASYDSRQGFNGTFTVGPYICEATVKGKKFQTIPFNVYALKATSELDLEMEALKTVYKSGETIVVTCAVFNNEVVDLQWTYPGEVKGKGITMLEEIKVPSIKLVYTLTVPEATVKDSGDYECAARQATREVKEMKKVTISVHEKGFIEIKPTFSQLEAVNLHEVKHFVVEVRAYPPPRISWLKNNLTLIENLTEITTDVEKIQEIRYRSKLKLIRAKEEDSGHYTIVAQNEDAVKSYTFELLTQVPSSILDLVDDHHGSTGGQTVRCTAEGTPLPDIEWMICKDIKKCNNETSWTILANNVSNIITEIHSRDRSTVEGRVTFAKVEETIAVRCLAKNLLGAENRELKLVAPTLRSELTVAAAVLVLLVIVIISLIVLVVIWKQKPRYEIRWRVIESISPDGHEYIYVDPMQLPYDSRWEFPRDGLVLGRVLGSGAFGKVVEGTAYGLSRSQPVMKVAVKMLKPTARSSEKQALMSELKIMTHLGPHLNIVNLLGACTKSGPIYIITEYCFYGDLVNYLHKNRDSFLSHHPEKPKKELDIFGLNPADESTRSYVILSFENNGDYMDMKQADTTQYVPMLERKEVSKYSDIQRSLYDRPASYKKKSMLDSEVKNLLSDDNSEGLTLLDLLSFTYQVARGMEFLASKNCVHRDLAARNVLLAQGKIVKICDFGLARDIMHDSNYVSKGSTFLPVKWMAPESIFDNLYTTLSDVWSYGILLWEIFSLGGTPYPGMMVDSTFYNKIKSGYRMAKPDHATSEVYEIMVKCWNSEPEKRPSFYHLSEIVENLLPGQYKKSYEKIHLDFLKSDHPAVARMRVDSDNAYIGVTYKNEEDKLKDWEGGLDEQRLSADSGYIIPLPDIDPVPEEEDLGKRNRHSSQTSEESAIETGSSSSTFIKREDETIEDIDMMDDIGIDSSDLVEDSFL
# [18] = molecular target: EPHA1 (Homo sapiens, UniProt P21709); assay: In vitro kinase inhibition profile (biochemical); conditions: read-out: Biochemical (IC50 nmol/L)
# [19] = tested on: phosphorylation of c-Kit, IGF1-R, PDGFRβ, p-AKT (Ser473), p-S6 (Ser235/236); assay: Western blot of xenograft tissue after 3 weeks of treatment
# [20] = molecular target: FER (Homo sapiens, UniProt P16591); assay: In vitro kinase inhibition profile (biochemical); conditions: read-out: Biochemical (IC50 nmol/L)
# [21] = molecular target: FGFR1 (Homo sapiens, UniProt P11362); assay: In vitro kinase inhibition profile (biochemical); conditions: read-out: Biochemical (IC50 nmol/L)
# [22] = molecular target: ROS (Homo sapiens, UniProt P08922); assay: In vitro kinase inhibition profile (biochemical); conditions: read-out: Biochemical (IC50 nmol/L)
# [23] = molecular target: SRC (Homo sapiens, UniProt P12931); assay: In vitro kinase inhibition profile (biochemical); conditions: read-out: Biochemical (IC50 nmol/L)
# Chain of SRC (P12931 whole entry): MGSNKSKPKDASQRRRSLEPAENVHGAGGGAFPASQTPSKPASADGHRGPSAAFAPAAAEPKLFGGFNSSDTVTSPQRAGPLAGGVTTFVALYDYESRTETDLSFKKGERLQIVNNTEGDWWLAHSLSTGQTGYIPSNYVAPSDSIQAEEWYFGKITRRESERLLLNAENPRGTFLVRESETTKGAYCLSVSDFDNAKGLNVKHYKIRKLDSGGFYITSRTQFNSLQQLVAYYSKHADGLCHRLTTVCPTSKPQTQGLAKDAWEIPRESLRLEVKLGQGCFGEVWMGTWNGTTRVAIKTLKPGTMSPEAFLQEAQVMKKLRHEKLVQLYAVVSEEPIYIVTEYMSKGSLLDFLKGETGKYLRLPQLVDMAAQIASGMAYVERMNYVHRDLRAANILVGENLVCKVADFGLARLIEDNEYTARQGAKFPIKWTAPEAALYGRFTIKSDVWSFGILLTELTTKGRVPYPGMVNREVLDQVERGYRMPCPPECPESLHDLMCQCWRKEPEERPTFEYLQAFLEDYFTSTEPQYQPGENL
# [24] = molecular target: EPHA4 (Homo sapiens, UniProt P54764); assay: In vitro kinase inhibition profile (biochemical); conditions: read-out: Biochemical (IC50 nmol/L)
# [25] = molecular target: LTK (Homo sapiens, UniProt P29376); assay: In vitro kinase inhibition profile (biochemical); conditions: read-out: Biochemical (IC50 nmol/L)
# [26] = molecular target: ERBB4 (Homo sapiens, UniProt Q15303); assay: In vitro kinase inhibition profile (biochemical); conditions: read-out: Biochemical (IC50 nmol/L)
# [27] = molecular target: ERBB1 (Homo sapiens, UniProt P00533); assay: In vitro kinase inhibition profile (biochemical); conditions: read-out: Biochemical (IC50 nmol/L)
# Chain of ERBB1 (P00533 25-1210): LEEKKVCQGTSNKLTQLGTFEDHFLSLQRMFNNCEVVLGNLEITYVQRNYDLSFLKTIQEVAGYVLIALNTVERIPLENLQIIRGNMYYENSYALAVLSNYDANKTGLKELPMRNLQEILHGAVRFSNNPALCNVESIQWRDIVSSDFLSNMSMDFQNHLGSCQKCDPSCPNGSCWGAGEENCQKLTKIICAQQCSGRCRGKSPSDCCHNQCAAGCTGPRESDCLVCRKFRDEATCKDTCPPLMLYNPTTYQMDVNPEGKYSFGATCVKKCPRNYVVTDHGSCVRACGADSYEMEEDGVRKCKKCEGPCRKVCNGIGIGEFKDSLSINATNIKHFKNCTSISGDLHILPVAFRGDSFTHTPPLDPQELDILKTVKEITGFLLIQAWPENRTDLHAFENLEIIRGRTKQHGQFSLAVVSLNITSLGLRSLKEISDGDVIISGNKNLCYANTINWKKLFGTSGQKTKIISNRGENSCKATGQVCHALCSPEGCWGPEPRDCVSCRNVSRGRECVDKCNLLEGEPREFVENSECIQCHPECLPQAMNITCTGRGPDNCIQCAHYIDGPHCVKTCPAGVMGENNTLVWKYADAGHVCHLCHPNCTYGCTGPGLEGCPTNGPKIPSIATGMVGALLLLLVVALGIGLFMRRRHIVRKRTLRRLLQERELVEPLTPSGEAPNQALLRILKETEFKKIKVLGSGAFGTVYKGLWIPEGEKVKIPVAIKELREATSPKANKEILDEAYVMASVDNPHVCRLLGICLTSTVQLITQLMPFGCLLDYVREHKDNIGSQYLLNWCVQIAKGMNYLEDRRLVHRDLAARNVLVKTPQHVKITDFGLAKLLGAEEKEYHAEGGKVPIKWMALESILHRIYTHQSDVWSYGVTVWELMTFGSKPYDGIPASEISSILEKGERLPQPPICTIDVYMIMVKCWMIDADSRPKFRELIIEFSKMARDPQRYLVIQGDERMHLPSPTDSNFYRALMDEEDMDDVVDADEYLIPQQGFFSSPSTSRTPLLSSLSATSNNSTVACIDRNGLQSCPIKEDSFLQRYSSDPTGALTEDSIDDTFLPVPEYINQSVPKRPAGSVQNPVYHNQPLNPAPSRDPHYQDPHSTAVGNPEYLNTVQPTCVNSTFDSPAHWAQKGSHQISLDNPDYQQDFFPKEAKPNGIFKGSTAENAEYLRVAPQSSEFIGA
# [28] = tested on: DDLS, MPNST and LS141 cell lines; assay: Cell viability assay, three sensitive cell lines; format: cell-based; conditions: 500 nmol/L of all TKIs, 72 hours
# [29] = molecular target: EPHB4 (Homo sapiens, UniProt P54760); assay: In vitro kinase inhibition profile (biochemical); conditions: read-out: Biochemical (IC50 nmol/L)
# [30] = molecular target: JAK1 (Homo sapiens, UniProt P23458); assay: In vitro kinase inhibition profile (biochemical); conditions: read-out: Biochemical (IC50 nmol/L)
smiles,measurement,setting,value
"COCCNCc1ccc(-c2cc3nccc(Oc4ccc(NC(=O)C5(C(=O)Nc6ccc(F)cc6)CC5)cc4F)c3s2)nc1 [MGCD516, Sitravatinib]",IC50,[1],> 5000 nmol/L
same,"inhibition of downstream effectors such as p-AKT (Ser473), comparison with imatinib and crizotinib",[2]; DDLS and MPNST,significantly better inhibition
same,down-regulation of p-AKT (Ser473),[2]; increasing concentrations of MGCD516,significant down-regulation of p-AKT (Ser473)
same,IC50,[3],2010 nmol/L
same,IC50,[4],2990 nmol/L
same,IC50,[5],> 10000 nmol/L
same,IC50,[6],1110 nmol/L
same,IC50,[7],> 10000 nmol/L
same,tumor growth,[8],significant suppression of tumor growth
same,IC50,[9],> 5000 nmol/L
same,IC50,[10],4100 nmol/L
same,IC50,[11],> 10000 nmol/L
same,IC50,[12],> 10000 nmol/L
same,colony number,[13],significant reduction in colony number
same,IC50,[14],> 5000 nmol/L
same,IC50,[15],339 nmol/L
same,IC50,[16],> 5000 nmol/L
same,IC50,[17],30 nmol/L
same,IC50,[18],> 10000 nmol/L
same,downstream effector pathways p-AKT (Ser473) and p-S6 (Ser235/236) in tumor tissue,[19],significant down-regulation
same,IC50,[20],1590 nmol/L
same,IC50,[21],> 5000 nmol/L
same,IC50,[22],59 nmol/L
same,IC50,[23],156 nmol/L
same,IC50,[24],76 nmol/L
same,IC50,[25],1940 nmol/L
same,IC50,[26],> 5000 nmol/L
same,IC50,[27],> 5000 nmol/L
same,"anti-proliferative effect, comparison of TKIs",[28],significant inhibition of proliferation as compared to crizotinib
same,IC50,[29],12 nmol/L
same,IC50,[30],> 10000 nmol/L
